Earlier results in PMC6311893, “Computational prediction of plasma protein binding of cyclic peptides from small molecule experimental data using sparse modeling techniques” (BMC Bioinformatics, 2018).

System: plasma protein
Details: fraction bound to plasma protein; small molecule dataset, sheet 1-SM (Set Dte = test, Dtr = training); ref Ingle et al.; cited from earlier work

**Q.** For `NS(=O)(=O)c1cc2c(cc1Cl)N=CNS2(=O)=O` [chlorothiazide], which “PPB (fb)” value is on record?
**A.** 0.7

**Q.** With `Cc1onc(-c2ccccc2Cl)c1C(=O)N[C@@H]1C(=O)N2[C@@H]1SC(C)(C)[C@@H]2C(=O)O` [cloxacillin] as the compound, how does the “PPB (fb)” value read?
**A.** 0.95

**Q.** With `CC(=O)N1CCN(c2ccc(OCC3COC(Cn4ccnc4)(c4ccc(Cl)cc4Cl)O3)cc2)CC1` (stereo not shown) [ketoconazole] as the compound, how does the “PPB (fb)” value read?
**A.** 0.92

**Q.** For `O=C(O)CN1C(=O)[C@@H](N[C@@H](CCc2ccccc2)C(=O)O)CCc2ccccc21` [Benazeprilat], which “PPB (fb)” value is on record?
**A.** 0.95

**Q.** With `Cc1ccccc1-n1cc(C(=O)O)c(=O)c2cc(F)c(N3CCNCC3)cc21` [4a(o-CH3)] as the compound, how does the “PPB (fb)” value read?
**A.** 0.37

**Q.** Which “PPB (fb)” value does the source give for `O=C(O)c1cn(-c2ccc([N+](=O)[O-])cc2)c2cc(N3CCNCC3)c(F)cc2c1=O` [7c(p-NO2)] here?
**A.** 0.3

**Q.** With `CC(C)(C)NCC(O)COc1cccc2c1CCC(=O)N2` (stereo not shown) [carteolol] as the compound, how does the “PPB (fb)” value read?
**A.** 0.15

Same assay, conditions: fraction bound to plasma protein; small molecule dataset, sheet 1-SM, Set Dtr; ref Ingle et al.; cited from earlier work

**Q.** With `COC(=O)Nc1nc2ccc(C(=O)c3ccccc3)cc2[nH]1` [Mebendazole] as the compound, how does the “PPB (fb)” value read?
**A.** 0.93

**Q.** Which “PPB (fb)” value does the source give for `Cc1onc(-c2c(Cl)cccc2Cl)c1C(=O)N[C@@H]1C(=O)N2[C@@H]1SC(C)(C)[C@@H]2C(=O)O` [Dicloxacillin] here?
**A.** 0.96

**Q.** For `CC(CCc1ccccc1)NCC(O)c1ccc(O)c(C(N)=O)c1` (stereo not shown) [Labetalol], which “PPB (fb)” value is on record?
**A.** 0.5

**Q.** Which “PPB (fb)” value does the source give for `O=C(c1ccc(F)cc1)C1CCN(CCn2c(=O)[nH]c3ccccc3c2=O)CC1` [Ketanserin] here?
**A.** 0.95

**Q.** With `CCCNC(=O)NS(=O)(=O)c1ccc(Cl)cc1` [Chlorpropamide] as the compound, how does the “PPB (fb)” value read?
**A.** 0.96

**Q.** Which “PPB (fb)” value does the source give for `O=C(c1ccccc1)c1ccc2n1CCC2C(=O)O` (stereo not shown) [Ketorolac] here?
**A.** 0.99

**Q.** Which “PPB (fb)” value does the source give for `COc1ccc2c(c1)c(CC(=O)O)c(C)n2C(=O)c1ccc(Cl)cc1` [Indomethacin] here?
**A.** 0.97

Same assay, conditions: fraction bound to plasma protein; small molecule dataset, sheet 1-SM; ref Ingle et al.; cited from earlier work

**Q.** For `CCCCNc1ccc(C(=O)OCCN(C)C)cc1` [tetracaine], which “PPB (fb)” value is on record?
**A.** 0.85

**Q.** With `CC(C)C(=O)Nc1ccc([N+](=O)[O-])c(C(F)(F)F)c1` [flutamide] as the compound, how does the “PPB (fb)” value read?
**A.** 0.9

**Q.** Which “PPB (fb)” value does the source give for `CCc1nnc(NS(=O)(=O)c2ccc(N)cc2)s1` [sulfaethidole] here?
**A.** 0.97

**Q.** For `CC(C)NCC(O)c1ccc(NS(C)(=O)=O)cc1` (stereo not shown) [Sotalol], which “PPB (fb)” value is on record?
**A.** 0.28

**Q.** Which “PPB (fb)” value does the source give for `COCC(=O)NC1C(=O)N2C1SC(C)(C)C2C(=O)O` (stereo not shown) [penicillin5] here?
**A.** 0.07

**Q.** Which “PPB (fb)” value does the source give for `CN1C(=O)CC(c2ccccc2)C1=O` (stereo not shown) [phensuximide] here?
**A.** 0.07

**Q.** Which “PPB (fb)” value does the source give for `CC(C)(C)NC[C@H](O)COc1nsnc1N1CCOCC1` [Timolol] here?
**A.** 0.1

**Q.** With `CC(=O)Nc1ccc(OCC(O)CNC(C)C)cc1` (stereo not shown) [practolol] as the compound, how does the “PPB (fb)” value read?
**A.** 0.3

**Q.** With `COC(C(=O)NC1C(=O)N2C1SC(C)(C)C2C(=O)O)c1cccc(Cl)c1` (stereo not shown) [penicillin40] as the compound, how does the “PPB (fb)” value read?
**A.** 0.83

**Q.** Which “PPB (fb)” value does the source give for `Cc1cccc(Nc2ccccc2C(=O)O)c1C` [mefenamic acid] here?
**A.** 0.99

**Q.** With `CCCCCNC(=N)N/N=C/c1c[nH]c2ccc(OC)cc12` [Tegaserod] as the compound, how does the “PPB (fb)” value read?
**A.** 0.98

**Q.** Which “PPB (fb)” value does the source give for `O=P(O)(O)C(O)(Cn1ccnc1)P(=O)(O)O` [Zoledronic Acid] here?
**A.** 0.22

**Q.** Which “PPB (fb)” value does the source give for `CC(CC(c1ccccc1)c1ccccc1)NC(C)(C)C` (stereo not shown) [Terodiline] here?
**A.** 0.88

**Q.** For `CCN(CC)CCOC(=O)C(Cc1cccc2ccccc12)CC1CCCO1` (stereo not shown) [nafronyl], which “PPB (fb)” value is on record?
**A.** 0.9

Same assay, conditions: human, plasma; cited from earlier work

**Q.** Which “PPB (fb)” value does the source give for `CCNC(=O)[C@@H]1CCCN1C(=O)[C@H](CCCNC(=N)N)NC(=O)[C@H](CC(C)C)NC(=O)[C@@H](COC(C)(C)C)NC(=O)[C@H](Cc1ccc(O)cc1)NC(=O)[C@H](CO)NC(=O)[C@H](Cc1c[nH]c2ccccc12)NC(=O)[C@H](Cc1cnc[nH]1)NC(=O)[C@@H]1CCC(=O)N1` [buserelin] here?
**A.** 0.15

Same assay, conditions: plasma; cited from earlier work

**Q.** Which “PPB (fb)” value does the source give for `O=C(O)CCCc1ccc(N(CCCl)CCCl)cc1` [Chlorambucil] here?
**A.** 0.99

**Q.** For `Cc1cccc(N2CC(CO)OC2=O)c1` (stereo not shown) [Toloxatone], which “PPB (fb)” value is on record?
**A.** 0.5

**Q.** Which “PPB (fb)” value does the source give for Pyridostigmine here?
**A.** 0

**Q.** For `C[C@]12COC(=O)C[C@@H]1CC[C@@H]1[C@@H]2CC[C@@]2(C)[C@H]1CC[C@]2(C)O` [oxandrolone], which “PPB (fb)” value is on record?
**A.** 0.95

**Q.** Which “PPB (fb)” value does the source give for acenocoumarol here?
**A.** 0.98

**Q.** Which “PPB (fb)” value does the source give for nafarelin here?
**A.** 0.8

**Q.** With Isradipine as the compound, how does the “PPB (fb)” value read?
**A.** 0.95

**Q.** With `Nc1c2c(nc3ccccc13)CCCC2` [Tacrine] as the compound, how does the “PPB (fb)” value read?
**A.** 0.65
